Patent publication US8609654B1, “Compounds for enzyme inhibition” (Onyx Therapeutics, Inc., priority 2006, dated 2013)

Tests used:
[1] = tested on: rheumatoid arthritis induced by anti-type II collagen antibodies and LPS; assay: Arthrogenic antibody mouse model of rheumatoid arthritis (anti-collagen antibodies and LPS); assay type: in vivo, female Balb/c mice
Protocol: The effect of Compound 14 on disease progression was assessed in 2 mouse models of rheumatoid arthritis (FIG. 2). […] Rhematoid arthritis was induced on Day 0 in female Balb/c mice by IV administration of anti-type II collagen antibodies followed 3 days later by LPS. […] Per mouse, each paw was measured for disease using a scale of 0-4 and a total clinical score was assigned for each animal (max score=16). Administration of 6 mg/kg of Compound 14 reduced disease severity by ˜50% while the 20 mg/kg dose level inhibited the disease by greater than 75%.

[2] = tested on: rheumatoid arthritis induced by immunization with bovine type II collagen in CFA; assay: Mouse model of RA by immunization with bovine type II collagen; assay type: in vivo, female DBA/1 mice
Protocol: The effect administration of Compound 14 on disease progress was also assessed in an alternative mouse model for RA, in which disease develops 21-30 days after immunization with bovine type II collagen (Kagari et al., J Immunol 169:1459-1466, 2002). […] Again, disease progression was measured using a total clinical score of paw condition per mouse.

[3] = tested on: chymotryptic-like activity of isolated 20S constitutive proteasome vs immunoproteasome; assay: Enzyme kinetic assay with isolated 20S proteasome preps, EC50 ratio of CT-L activity (20S ratio); assay type: biochemical; settings: constitutive proteasome to immunoproteasome, >1 = prefers immunoproteasome
Excerpt: Enzyme kinetic assays such as those disclosed in U.S. application Ser. No. 09/569,748, Example 2 and Stein et al., Biochem. (1996), 35, 3899-3908 use isolated 20S proteasome preps with greater than 90% constitutive proteasome subunits or immunoproteasome subunits. The inhibitory preference of the molecule is then based on the EC50 ratio of the chymotryptic-like activity of the constitutive proteasome to that of the immunoproteasome (20S ratio).

[4] = target: T1, 26S proteasome CT-L activity in lysate of HT29 (constitutive) vs Sultan/Thp1 (immunoproteasome) cells (Homo sapiens, UniProt P28062+P28074); assay: CT-L EC50 with 26S proteasome in cell lysate (Lysate ratio); assay type: biochemical; settings: HT29 lysate to Sultan/Thp1 lysate, >1 = prefers immunoproteasome
T1 construct: using 26S proteasome in the context of a cell lysate; endogenous in cells; host or cells: HT29 lysate (constitutive); Sultan or THP1 lysate (immunoproteasome)
T1 sequence (P28074 60-263): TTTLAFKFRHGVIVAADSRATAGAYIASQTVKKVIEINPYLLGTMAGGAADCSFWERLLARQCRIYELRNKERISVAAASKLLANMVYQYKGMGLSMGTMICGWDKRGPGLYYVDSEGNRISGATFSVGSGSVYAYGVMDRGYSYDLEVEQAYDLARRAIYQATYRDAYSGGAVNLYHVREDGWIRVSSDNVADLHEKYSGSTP
T1 sequence (P28062 73-276): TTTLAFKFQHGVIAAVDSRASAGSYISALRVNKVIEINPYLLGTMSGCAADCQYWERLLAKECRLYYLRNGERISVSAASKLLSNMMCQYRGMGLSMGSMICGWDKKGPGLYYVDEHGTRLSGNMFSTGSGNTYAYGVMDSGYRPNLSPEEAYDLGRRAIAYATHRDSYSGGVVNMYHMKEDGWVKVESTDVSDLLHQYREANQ
Protocol: Alternatively, the CT-L EC50 of a compound can be determined using 26S proteasome in the context of a cell lysate. Compound is added to lysate generated from cells that either predominantly express constitutive proteasome (e.g., HT29) or immunoproteasome (e.g., THP1). Again, the inhibitory preference is then based on the EC50 ratio (Lysate ratio).

[5] = target: T2, 20S proteasome subunit β5 vs immunoproteasome subunit LMP7 in RPMI-8226 cells (Homo sapiens, UniProt P28062+P28074); assay: ELISA-based active site assay in RPMI-8226 cells (ELISA ratio); assay type: cell-based; settings: EC50 ratio with β5 antibody to LMP7 antibody, RPMI-8226 cells; >1 = prefers immunoproteasome
T2 construct: Cells expressing approximately equivalent amounts of immuno- and constitutive proteasome (e.g., RPMI-8226) are treated with test compound; endogenous in cells; host or cells: RPMI-8226 multiple myeloma cells
T2 sequence (P28074 60-263): T1 sequence (P28074 60-263)
T2 sequence (P28062 73-276): T1 sequence (P28062 73-276)
Protocol: Lastly, a more cell-based approach can be utilized. Cells expressing approximately equivalent amounts of immuno- and constitutive proteasome (e.g., RPMI-8226) are treated with test compound, followed by the method for determining the activity of a proteasome inhibitor as described in application Ser. No. 11/254,541. The ratio of the EC50 generated in the ELISA-based assay using β5 antibody and LMP7 antibodies (ELISA ratio) provides the basis for determining the inhibitory preference of the test compound. […] In all three assays, a ratio of less than one denotes the molecule inhibits the CT-L activity of the constitutive proteasome better than that of the immunoproteasome. Ratios greater than one signifies the molecule inhibits chymotrypsin-like activity of the immunoproteasome better than that of the constitutive proteasome.
A suitable ELISA assay may be found in U.S. patent application Ser. No. 11/254,541, incorporated herein in its entirety. Briefly, RPMI-8226 cells were treated with 0.1 nM to 1 μM of proteasome Inhibitor B. The samples were then washed with phosphate-buffered saline (PBS) and lysed in hypotonic buffer (20 mM Tris pH 8, 5 mM EDTA) (Tris-HCl and EDTA are available from Teknova, Inc., Hollister, Calif.). Cellular debris was removed by centrifugation at 14,000 rpm in a microfuge (4° C.) for 2 min. The supernatant was transferred to a fresh tube, snap frozen in liquid nitrogen and stored at −80° C. After thawing on ice, the samples (30 μl for assays run in triplicate) were treated with 500 nM of Inhibitor A for 1 hr at room temperature. Following treatment with Inhibitor A, the lysate was denatured by addition of seven volumes of 1% SDS (210 μl) (available from Bio-Rad, Hercules, Calif.) and heating at 99° C. with vigorous shaking for 5 min. The sample was allowed to cool and two volumes (60 μl) of 10% Triton X-100 (available from Bio-Rad, Hercules, Calif.) was added.
Streptavidin sepharose beads (6.5 μl/well) (available from Amersham Biosciences, Piscataway, N.J.), were washed three times with 1 ml PBS (available from Mediatech, Inc., Herndon, Va.) in a microcentrifuge tube. The beads were resuspended in ELISA wash/block buffer (PBS+0.1% Tween 20+1% bovine serum albumin; 20 μl/well) and transferred to the wells of a 96 well filter plate (BSA is available from Sigma, St. Louis, Mo.; Tween is available from Calbiochem, San Diego, Calif.). Denatured whole blood or PBMC lysates that were treated with Inhibitor 3 were added to the filter plate wells containing the streptavidin sepharose beads (each sample assayed in triplicate) and incubated for 1 hr at room temperature with shaking (MultiScreen-DV Opaque Plates with low protein binding durapore membrane; available from Millipore, Billerica, Mass.). The unbound material was removed by gentle filtration and the beads were washed six times with ELISA wash/block buffer (200 μl each).
Primary antibody to human 20S proteasome subunit (35 (rabbit polyclonal antibody; available from Biomol, Plymouth Meeting, Pa.) or human 20S immunoproteasome subunit LMP7 (rabbit polyclonal antibody; available from Affinity BioReagents, Golden, Colo.) was diluted 1:1000 in ELISA wash/block buffer, added to the beads (100 μl/well), and incubated for 1 hr at room temperature on an orbital shaker. The beads were washed six times with ELISA wash/block buffer with gentle filtration. Secondary antibody treatment (1:5000) and washing are as described for primary antibody (goat anti-rabbit antibody-HRP conjugate; available from Biosource, Camarillo, Calif.). The beads were then resuspended in 100 μl chemiluminescent detection reagent (Super Signal Pico Chemiluminescent Substrate™; available from Pierce, Rockford, Ill.) and luminescence was read on a Tecan plate reader. […]

Compound | reduction of disease severity ([1]; 6 mg/kg IV 3 times/week for 2 weeks from Day 4) [%] | inhibition of the disease ([1]; 20 mg/kg IV 3 times/week for 2 weeks from Day 4) | effect on disease progression ([1]; IV 3 times/week for 2 weeks from Day 4, total clinical score (max 16)) | effect on disease progression ([2]; 6 or 20 mg/kg beginning after first signs of disease, total clinical score) | dose dependence of reduction of disease severity ([2]; 6 vs 20 mg/kg) | 20 S ratio (const:immuno) [3] | Lysate ratio (HT29:Sultan/Thp1) [4] | Elisa ratio (beta5:LMP7) [5]
COc1ccc(C[C@H](NC(=O)[C@H](C)NC(=O)CN2CCOCC2)C(=O)N[C@@H](Cc2ccccc2)C(=O)[C@@]2(C)CO2)cc1 [Compound 14] | ~50 | greater than 75% | inhibited disease progression in a dose dependent manner | inhibited disease progression as compared to vehicle control | enhanced reduction of disease severity | – | – | –
CC(C)C(NC(=O)OCc1ccccc1)C(=O)N[C@@H](Cc1ccccc1)C(=O)N[C@@H](Cc1ccccc1)C(=O)C1(C)CO1 (some centres unmarked) | – | – | – | – | – | >5.0 | >2.0 | >2.0
C[C@H](NC(=O)OCc1ccccc1)C(=O)N[C@@H](Cc1ccc(C#N)cc1)C(=O)N[C@@H](Cc1ccccc1)C(=O)C1(C)CO1 (some centres unmarked) | – | – | – | – | – | >1.0 | >2.0 | >5.0
C[C@H](NC(=O)OCc1ccccc1)C(=O)N[C@@H](Cc1c[nH]c2ccccc12)C(=O)N[C@H](C(=O)C1(C)CO1)c1ccccc1 (some centres unmarked) | – | – | – | – | – | >2.0 | >5.0 | >3.0
CC1(C(=O)[C@H](Cc2ccccc2)NC(=O)[C@H](Cc2ccccc2)NC(=O)C(CC(=O)O)NC(=O)OCc2ccccc2)CO1 (some centres unmarked) | – | – | – | – | – | >3.0 | >3.0 | >2.0
